{"source": "PubChem BioAssay AID1745844", "about": "(Carcinogenic Potency Database (CPDB), 2022)", "system": "rodent lifetime carcinogenesis bioassay, tumor incidence TD50", "assay": "chronic cancer bioassays in animals – CPDB, compiled studies (AID 1745844)", "note": "Activity calls are given as the source filed them. How the calls were made is not given here."}
{"molecule": "Nc1ccc2nc3ccccn3c2n1", "values": [{"measurement": "TD50", "setting": "mouse, strain CDF1, females, in feed, site: blood vessels, lesion: hemangioendothelial sarcoma, dosed 82 weeks, study length 82 weeks", "value": 43, "unit": "mg/kg/day"}, {"measurement": "TD50", "setting": "mouse, strain CDF1, females, in feed, site: blood vessels, lesion: several types, types named in the paper, dosed 82 weeks, study length 82 weeks", "value": 39.9, "unit": "mg/kg/day"}, {"measurement": "TD50", "setting": "mouse, strain CDF1, females, in feed, site: liver, lesion: hepatocellular adenoma, dosed 82 weeks, study length 82 weeks", "value": 170, "unit": "mg/kg/day"}, {"measurement": "TD50", "setting": "mouse, strain CDF1, females, in feed, site: liver, lesion: hepatocellular carcinoma, dosed 82 weeks, study length 82 weeks", "value": 20, "unit": "mg/kg/day"}, {"measurement": "TD50", "setting": "mouse, strain CDF1, females, in feed, site: liver, lesion: several types, types named in the paper, dosed 82 weeks, study length 82 weeks", "value": 12, "unit": "mg/kg/day"}, {"measurement": "TD50", "setting": "mouse, strain CDF1, females, in feed, site: lung, lesion: adenoma, dosed 82 weeks, study length 82 weeks", "value": 1090, "unit": "mg/kg/day"}, {"measurement": "TD50", "setting": "mouse, strain CDF1, males, in feed, site: blood vessels, lesion: hemangioendothelial sarcoma, dosed 84 weeks, study length 84 weeks", "value": 27.3, "unit": "mg/kg/day"}, {"measurement": "TD50", "setting": "mouse, strain CDF1, males, in feed, site: blood vessels, lesion: several types, types named in the paper, dosed 84 weeks, study length 84 weeks", "value": 23.9, "unit": "mg/kg/day"}, {"measurement": "TD50", "setting": "mouse, strain CDF1, males, in feed, site: liver, lesion: hepatocellular adenoma, dosed 84 weeks, study length 84 weeks", "value": 201, "unit": "mg/kg/day"}, {"measurement": "TD50", "setting": "mouse, strain CDF1, males, in feed, site: liver, lesion: hepatocellular carcinoma, dosed 84 weeks, study length 84 weeks", "value": 255, "unit": "mg/kg/day"}, {"measurement": "TD50", "setting": "mouse, strain CDF1, males, in feed, site: liver, lesion: several types, types named in the paper, dosed 84 weeks, study length 84 weeks", "value": 93.2, "unit": "mg/kg/day"}, {"measurement": "TD50", "setting": "mouse, strain CDF1, males, in feed, site: lung, lesion: adenoma, dosed 84 weeks, study length 84 weeks", "value": 483, "unit": "mg/kg/day"}, {"measurement": "TD50", "setting": "rat, strain F344/DuCrj, females, in feed, site: Zymbal's gland, lesion: squamous-cell carcinoma, dosed 104 weeks, study length 104 weeks", "value": 94, "unit": "mg/kg/day"}, {"measurement": "TD50", "setting": "rat, strain F344/DuCrj, females, in feed, site: clitoral gland, lesion: one or several types, types not named, dosed 104 weeks, study length 104 weeks", "value": 56.4, "unit": "mg/kg/day"}, {"measurement": "TD50", "setting": "rat, strain F344/DuCrj, females, in feed, site: colon, lesion: adenocarcinoma, dosed 104 weeks, study length 104 weeks", "value": 351, "unit": "mg/kg/day"}, {"measurement": "TD50", "setting": "rat, strain F344/DuCrj, females, in feed, site: colon, lesion: adenoma, dosed 104 weeks, study length 104 weeks", "value": 111, "unit": "mg/kg/day"}, {"measurement": "TD50", "setting": "rat, strain F344/DuCrj, females, in feed, site: colon, lesion: several types, types named in the paper, dosed 104 weeks, study length 104 weeks", "value": 81.1, "unit": "mg/kg/day"}, {"measurement": "TD50", "setting": "rat, strain F344/DuCrj, females, in feed, site: liver, lesion: several types, types named in the paper, dosed 104 weeks, study length 104 weeks", "value": 351, "unit": "mg/kg/day"}, {"measurement": "TD50", "setting": "rat, strain F344/DuCrj, females, in feed, site: small intestine, lesion: adenocarcinoma, dosed 104 weeks, study length 104 weeks", "value": 135, "unit": "mg/kg/day"}, {"measurement": "TD50", "setting": "rat, strain F344/DuCrj, females, in feed, site: small intestine, lesion: adenoma, dosed 104 weeks, study length 104 weeks", "value": 171, "unit": "mg/kg/day"}, {"measurement": "TD50", "setting": "rat, strain F344/DuCrj, females, in feed, site: small intestine, lesion: mucinous carcinoma, dosed 104 weeks, study length 104 weeks", "value": 711, "unit": "mg/kg/day"}, {"measurement": "TD50", "setting": "rat, strain F344/DuCrj, females, in feed, site: small intestine, lesion: several types, types named in the paper, dosed 104 weeks, study length 104 weeks", "value": 81.1, "unit": "mg/kg/day"}, {"measurement": "TD50", "setting": "rat, strain F344/DuCrj, males, in feed, site: Zymbal's gland, lesion: squamous-cell carcinoma, dosed 104 weeks, study length 104 weeks", "value": 569, "unit": "mg/kg/day"}, {"measurement": "TD50", "setting": "rat, strain F344/DuCrj, males, in feed, site: brain, lesion: astrocytoma, dosed 104 weeks, study length 104 weeks", "value": 281, "unit": "mg/kg/day"}, {"measurement": "TD50", "setting": "rat, strain F344/DuCrj, males, in feed, site: colon, lesion: adenocarcinoma, dosed 104 weeks, study length 104 weeks", "value": 185, "unit": "mg/kg/day"}, {"measurement": "TD50", "setting": "rat, strain F344/DuCrj, males, in feed, site: colon, lesion: adenoma, dosed 104 weeks, study length 104 weeks", "value": 185, "unit": "mg/kg/day"}, {"measurement": "TD50", "setting": "rat, strain F344/DuCrj, males, in feed, site: colon, lesion: several types, types named in the paper, dosed 104 weeks, study length 104 weeks", "value": 88.9, "unit": "mg/kg/day"}, {"measurement": "TD50", "setting": "rat, strain F344/DuCrj, males, in feed, site: liver, lesion: several types, types named in the paper, dosed 104 weeks, study length 104 weeks", "value": 52.1, "unit": "mg/kg/day"}, {"measurement": "TD50", "setting": "rat, strain F344/DuCrj, males, in feed, site: small intestine, lesion: adenocarcinoma, dosed 104 weeks, study length 104 weeks", "value": 45.1, "unit": "mg/kg/day"}, {"measurement": "TD50", "setting": "rat, strain F344/DuCrj, males, in feed, site: small intestine, lesion: adenoma, dosed 104 weeks, study length 104 weeks", "value": 137, "unit": "mg/kg/day"}, {"measurement": "TD50", "setting": "rat, strain F344/DuCrj, males, in feed, site: small intestine, lesion: mucinous carcinoma, dosed 104 weeks, study length 104 weeks", "value": 281, "unit": "mg/kg/day"}, {"measurement": "TD50", "setting": "rat, strain F344/DuCrj, males, in feed, site: small intestine, lesion: several types, types named in the paper, dosed 104 weeks, study length 104 weeks", "value": 33.8, "unit": "mg/kg/day"}]}
{"molecule": "CCCCN(CCCCO)N=O", "values": [{"measurement": "TD50", "setting": "rat, strain F344/DuCrj, males, in drinking water, site: liver, lesion: hyperplastic nodule, dosed 106 weeks, study length 112 weeks", "value": 0.169, "unit": "mg/kg/day"}, {"measurement": "TD50", "setting": "rat, strain F344/DuCrj, males, in drinking water, site: urinary bladder, lesion: papilloma, dosed 106 weeks, study length 112 weeks", "value": 0.447, "unit": "mg/kg/day"}, {"measurement": "TD50", "setting": "rat, strain F344/DuCrj, males, in drinking water, site: urinary bladder, lesion: transitional-cell carcinoma, dosed 106 weeks, study length 112 weeks", "value": 0.432, "unit": "mg/kg/day"}, {"measurement": "carcinogen call", "setting": "rat, strain Fischer 344, females, in feed, site: urinary bladder, lesion: carcinoma, dosed 103 weeks, study length 103 weeks", "value": "positive"}, {"measurement": "TD50", "setting": "rat, strain Fischer 344, males, in drinking water, site: testis, lesion: Leydig-cell tumor, dosed 78 weeks, study length 78 weeks", "value": 0.386, "unit": "mg/kg/day"}, {"measurement": "TD50", "setting": "rat, strain Fischer 344, males, in drinking water, site: urinary bladder, lesion: transitional-cell carcinoma, dosed 78 weeks, study length 78 weeks", "value": 0.175, "unit": "mg/kg/day"}, {"measurement": "TD50", "setting": "rat, strain Fischer 344, males, in feed, site: liver, lesion: hepatocellular carcinoma, dosed 103 weeks, study length 103 weeks", "value": 185, "unit": "mg/kg/day"}, {"measurement": "TD50", "setting": "rat, strain Fischer 344, males, in feed, site: urinary bladder, lesion: carcinoma, dosed 103 weeks, study length 103 weeks", "value": 0.549, "unit": "mg/kg/day"}, {"measurement": "TD50", "setting": "rat, strain Sprague-Dawley, males, by gavage, site: lung, lesion: carcinoma, dosed 39 weeks, study length 74 weeks", "value": 166, "unit": "mg/kg/day"}, {"measurement": "TD50", "setting": "rat, strain Sprague-Dawley, males, by gavage, site: urinary bladder, lesion: several types, types named in the paper, dosed 39 weeks, study length 74 weeks", "value": 1.17, "unit": "mg/kg/day"}, {"measurement": "TD50", "setting": "rat, strain Sprague-Dawley, males, in drinking water, site: liver, lesion: liver-cell carcinoma, dosed 104 weeks, study length 104 weeks", "value": 271, "unit": "mg/kg/day"}, {"measurement": "TD50", "setting": "rat, strain Sprague-Dawley, males, in drinking water, site: urinary bladder, lesion: carcinoma, dosed 104 weeks, study length 104 weeks", "value": 3.3, "unit": "mg/kg/day"}]}
{"molecule": "Cc1ccc2ncccc2c1", "values": [{"measurement": "TD50", "setting": "rat, strain Fischer 344, females, in feed, site: liver, lesion: hyperplastic nodule, dosed 104 weeks, study length 104 weeks", "value": "230 mg/kg/day (inactive)"}, {"measurement": "TD50", "setting": "rat, strain Fischer 344, males, in feed, site: liver, lesion: hyperplastic nodule, dosed 104 weeks, study length 104 weeks", "value": "123 mg/kg/day (inactive)"}]}
{"molecule": "CCCN(N=O)C(N)=O", "values": [{"measurement": "carcinogen call", "setting": "rat, strain F344/DuCrj, females, in drinking water, site: thymus gland, lesion: lymphoma, dosed 70 weeks, study length 70 weeks", "value": "positive"}, {"measurement": "carcinogen call", "setting": "rat, strain F344/DuCrj, females, in drinking water, site: thymus gland, lesion: lymphoma, dosed 75 weeks, study length 75 weeks", "value": "positive"}, {"measurement": "carcinogen call", "setting": "rat, strain F344/DuCrj, males, in drinking water, site: thymus gland, lesion: lymphoma, dosed 70 weeks, study length 70 weeks", "value": "positive"}, {"measurement": "carcinogen call", "setting": "rat, strain F344/DuCrj, males, in drinking water, site: thymus gland, lesion: lymphoma, dosed 75 weeks, study length 75 weeks", "value": "positive"}]}
